Data on two compounds can be found in patent publication US20030027243A1, “Antifungal compounds and methods of use” (Anadys Pharmaceuticals, Inc., priority 2000, published 2003).

Common to all, as to assay: Broth microdilution antifungal susceptibility test (NCCLS M27A based), MIC
Common to all, as to type: cell-based
What all share (conditions): quality control range for control compounds, 35° C., 48 hours

For assay [1], the system named is Aspergillus nidulans, e.g., NRRL 194 (ATCC 38163). An excerpt:
(§1) Non-limiting examples of such procedures test the candidate inhibitor compounds for antifungal activity against a panel of three strains: C. albicans, S. cerevisiae , and A. nidulans. One such procedure is based on the NCCLS M27A method (The National Committee for Clinical Laboratory Standards, Reference Method for Broth Microdilution Antifungal Susceptibility Testing of Yeasts; approved standard, 1997) to measure minimum inhibitory concentrations (MICs) and minimum fungicidal concentrations (MFCs). An overview of this of this protocol follows.
3. RPMI-1640: 10.4 g powdered media (Sigma R-6504, w/ glutamine & w/o bicarbonate); 2.0 g NaHCO3 (Sigma S-6297); 34.53 g MOPS buffer (Sigma M-6270). Dissolve powdered media and NaHCO3 in 900 ml distilled water. Add MOPS and stir until dissolved. Adjust pH to 7.0 using 1N NaOH. […]
2. […] The turbidity of the solution is determined by measuring the absorbance in a spectrophotometer (Shimadzu UV-1201S UV-VIS Spectrophotometer) set at 600 nm. An absorbance value between 0.1 and 0.4 is required for an accurate reading. […]
(§2) Stock solutions of control compounds (1.6 mg/ml, Amphotericin B or Itraconazole) are initially diluted in medium to a concentration of 32 ug/ml while stock solutions of test compounds (typically 12.8 mg/ml) are diluted to 256 ug/ml. […] If a stock solution of a test compound is not at 12.8 mg/ml, the appropriate dilution must be calculated. […]

Assay [2] has as its system Candida albicans, e.g., ATCC 10231.
Description: as §1
(§3) 3. RPMI-1640: 10.4 g powdered media (Sigma R-6504, w/ glutamine & w/o bicarbonate); 2.0 g NaHCO3 (Sigma S-6297); 34.53 g MOPS buffer (Sigma M-6270). Dissolve powdered media and NaHCO3 in 900 ml distilled water. Add MOPS and stir until dissolved. Adjust pH to 7.0 using 1N NaOH. Bring final volume to 1 liter, filter sterilize, and store at 4° C.
(§4) 1. Yeasts: Yeasts (Saccharonyces cerevisiae and Candida albicans) are cultured on Sabouraud dextrose agar (SDA) plates in a 35° C. incubator. Strains on SDA plates are stored at 4° C. and used as working stock cultures. Working stock plates are prepared once a month from frozen stocks of cells. Inoculum for susceptibility testing is prepared from fresh 24 hour cultures. 5-10 colonies are scraped from the plate and suspended in three milliliters of sterile 0.85% saline (8.5 g/liter NaCl). The cell density of the solution is determined by measuring the absorbance in a spectrophotometer (Shimadzu UV-1201S UV-VIS Spectrophotometer) set at 600 nm. An absorbance value between 0.1 and 0.4 is required for an accurate reading. […]
as §2

Assay [3] has as its system Saccharomyces cerevisiae, e.g., CTY552.
Description: as §1, §3, §4, §2

Each structure is given as a SMILES string.

Take `CCC(C)n1ncn(-c2ccc(N3CCN(c4ccc(OCC5COC(Cn6cncn6)(c6ccc(Cl)cc6Cl)O5)cc4)CC3)cc2)c1=O` (centres unmarked) [Itraconazole]: the “Acceptable MIC range values” in assay [1] and in assay [2] was 0.25 to 1.0 µg/mL each time.
`C[C@@H]1[C@H](O)[C@@H](C)/C=C/C=C/C=C/C=C/C=C/C=C/C=C/[C@H](O[C@@H]2O[C@H](C)[C@@H](O)[C@H](N)[C@@H]2O)C[C@@H]2O[C@](O)(C[C@@H](O)C[C@@H](O)[C@H](O)CC[C@@H](O)C[C@@H](O)CC(=O)O[C@H]1C)C[C@H](O)[C@H]2C(=O)O` [Am B, Amphotericin B]: the entries for the “Acceptable MIC range values” in assay [1], in assay [2] and in assay [3] were 0.5 to 2.0 µg/mL, 0.25 to 1.0 µg/mL and 0.25 to 1.0 µg/mL, respectively.
